The text below walks through data of patent US20240246911A1, “NOVEL T[…] METHODS OF TREATING MOOD DISORDERS” (GILGAMESH PHARMACEUTICALS INC., priority 2021, published 2024).

One may read the Emax as the size of the effect at its maximum, as opposed to the concentration needed. Usually EC50 stands for the concentration needed to bring the measured effect to its halfway point. Usually Ki stands for the equilibrium dissociation constant of an inhibitor or competing ligand from its target. Lower therefore signals a stronger hold on the target.

Counter-ions that a name gives are not always drawn. Like-named read-outs stand apart in the source and are kept apart here.

For one test, the target named is 5-HT2B receptor (Homo sapiens (Human), UniProt P41595). The test is described as follows: FLIPR Ca2+ flux functional assay, agonist activity at 5-HT2B. Type of test: cell-based. As to conditions: for Emax: HEK293 stably transfected cells, Ca2+ flux. As to the method:
(§1) Functional Assays at 5-HT2A, 5-HT2B, and 5-HT1A Receptors. Agonist activity at 5-HT2A, 5-HT2B, and 5-HTIA receptors was determined using a FLIPR Ca^2− flux assay at WuXi AppTec (Hong Kong) Limited according to their standard protocols. Briefly, stably transfected cells expressing the receptor of interest (HEK293 for 5-HT2A and 5-HT2B; CHO cells for 5-HT1A) were grown and plated in a 384-well plate and incubated at 37° C. and 5% CO2 overnight. A solution of 250 mM probenecid in 1 mL FLIPR assay buffer was prepared fresh. This was combined with a fluorescent dye (Fluo-4 Direct™) to make a final assay concentration of 2.5 mM. Compounds were diluted 1:3.16 for 10 points and 750 nL was added to a 384-well compound plate using ECHO along with 30 μL of assay buffer. The fluorescent dye was then added to the assay plate along with assay buffer to a final volume of 40 μL. The cell plate was incubated for 50 min at 37° C.and 5% CO2 and placed into the FLIPR Tetra along with the compound plate. 10 μL of references and compounds were then transferred from the compound plate into the cell plate and the fluorescent signal was read.

Test [1] has as its target T1, 5-HT2A receptor (Homo sapiens (Human), UniProt P28223). The test is described as follows: FLIPR Ca2+ flux functional assay, agonist activity at 5-HT2A. Type of test: cell-based. On the procedure:
as §1
For orientation: Calcium flux is commonly read through the fluorescence of an indicator in the cells.

For the next test, the target named is 5-HT1A receptor (Homo sapiens (Human), UniProt P08908). Kind of test: FLIPR Ca2+ flux functional assay, agonist activity at 5-HT1A. Type of test: cell-based. As to conditions: for Emax: read-out: 5-HT1A Emax. As to the method: as §1
Another test deals with rat synaptosomes. Kind of test: Synaptosome 5-HT release assay. The class given is biochemical. As to conditions: for EC50: rat synaptosomes preloaded with [3H]5-HT, 10 mins. On the procedure:
Synaptosome 5-HT Release Assay. Synaptosome release assays were conducted according to modifications of previously described procedures (Partilla et al. (2016). Interrogating the Activity of Ligands at Monoamine Transporters in Rat Brain Synaptosomes. In Neurotransmitter Transporters (pp. 41-52). Springer.). Briefly, synaptosomes were prepared from rat brains. Male
Sprague-Dawley rats were rendered unconscious with CO2 and their brains were immediately removed. The cerebella were discarded and the whole brains (minus striatum) were placed in ice-cold 0.32 M sucrose (10 mL per brain) and gently homogenized by hand. The homogenate of each brain was centrifuged at 1,000×g at 4° C.for 10 mins and the resulting supernatant was diluted with ice-cold 0.32 M sucrose to a total volume of 10 mL to provide the synaptosome solution. […] The incubations were allowed to reach equilibrium for 2 h at 25° C. For the release reactions, 425 μL of preloaded synaptosomes were added to test tubes containing 75 μL of test drugs diluted in KPB containing 1 mg/mL BSA. After 10 mins, the release reaction was stopped using a cell harvester by rapid vacuum filtration over GF/B filter paper presoaked in wash buffer (10 mM Tris-HCl, pH 7.4, 150 mM NaCl) and the filters were washed with additional wash buffer. Filters were dried for 1 h at 60° C.and retained radioactivity was quantified using a MicroBeta 2 liquid scintillation counter. The amount of retained radioactivity was inversely proportional to the extent of release.

The target of test [2] is T1, 5-HT2A receptor. Kind of test: 5-HT2A receptor radioligand binding with [3H]ketanserin. As to conditions: HEK293 stable cell line, 1 nM [3H]ketanserin, 1 h, 25° C.
For test [3], the system named is rat forced swim test (FST). The test is described as follows: Forced swim test in rats. Type of test: in vivo. As to conditions: s.c., 23.5-h pre-treatment time. As to the method:
Compound 1 is tested for antidepressant-like activity in the rat forced swim test (FST). The compound induces antidepressant-like effects with a 23.5-h pre-treatment time.
Animals. Male Sprague Dawley rats, aged 9-10 weeks, are used in this experiment. Animals are housed in groups of 2 under controlled temperature (22+3°C.) and relative humidity (30-70%) conditions, with 12-hour light/dark cycles, and with ad libitum food and water. This study is carried out in strict accordance with the requirements of the Committee for the Purpose of Control and Supervision of Experiments on Animals (CPCSEA), India. All efforts are made to minimize suffering.
Drugs and Drug Administration. Test compound, saline vehicle, and the positive control desipramine are administered subcutaneously (s.c.), with doses calculated based on the free base. Normal saline is used as the vehicle (or acidified saline in the case of free bases). All compounds are administered at a volume of 5 mL/kg. Test compound and vehicle are administered 0.5 h after the start of the training swim (Swim 1) and 23.5 h before the test swim (Swim 2). […]
Behavioral scoring is conducted by observers who are blind to the treatment groups. Animals are continuously observed during Swim 2 and the total time spent engaging in the following behaviors is recorded: immobile, swimming, and climbing. […]

Setting [4] is: HEK293 stably transfected cells, Ca2+ flux.

Chain of 5-HT2B receptor (P41595 whole entry, looked up): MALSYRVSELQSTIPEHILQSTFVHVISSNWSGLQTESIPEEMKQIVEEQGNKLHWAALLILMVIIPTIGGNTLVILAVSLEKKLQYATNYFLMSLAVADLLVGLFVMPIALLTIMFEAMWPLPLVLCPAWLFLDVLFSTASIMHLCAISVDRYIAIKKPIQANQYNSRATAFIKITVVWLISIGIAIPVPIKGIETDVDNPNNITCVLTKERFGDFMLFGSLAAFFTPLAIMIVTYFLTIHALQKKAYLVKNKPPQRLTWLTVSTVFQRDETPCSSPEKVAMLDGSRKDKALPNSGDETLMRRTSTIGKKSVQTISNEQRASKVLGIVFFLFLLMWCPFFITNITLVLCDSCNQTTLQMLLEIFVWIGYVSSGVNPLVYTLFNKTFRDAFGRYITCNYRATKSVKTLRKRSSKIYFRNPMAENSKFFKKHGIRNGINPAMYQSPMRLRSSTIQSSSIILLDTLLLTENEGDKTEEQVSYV

On to `COc1ccc2[nH]cc(CCN(C)C)c2c1` [Compound 5-MeO-DMT, 5-methoxy-N,N-dimethyltryptamine, reference compound], for which the values for the Emax at 5-HT2B receptor, on 5-HT2A receptor [1] (setting [4]) and on 5-HT1A receptor were 17.6%, 106% and 100%, respectively. Also, a half-maximal effect in the test with rat synaptosomes (EC50) was put at 3950 nM. Besides, the “% Release @ Max Dose (10 μM)” value in the test on rat synaptosomes (rat synaptosomes) is 54.63%.
As to `CN(C)CCc1c[nH]c2ccc(OC(F)(F)F)cc12` [Compound 1, N,N-dimethyl-2-(5-(trifluoromethoxy)-1/-indol-3-yl)ethan-1-amine hydrochloride], the Ki on 5-HT2A receptor [2] came to 890 nM. Also, the EC50 on 5-HT2B receptor is 762 nM; at 5-HT2A receptor [1] it was 127 nM; at 5-HT1A receptor it was 6.33 µM; in the test on rat synaptosomes, 192 nM. Moreover, the Emax is 19.6% on 5-HT2B receptor, 78.9% on 5-HT2A receptor [1] (setting [4]) and 81.8% on 5-HT1A receptor. In addition, on 5-HT2A receptor [1] (Ca2+ flux), the “agonist activity at the 5-HT2A receptor (in words)” value is listed as “potent agonist activity”. For the same molecule, the “agonist type at the 5-HT2A receptor (in words)” value at 5-HT2A receptor [1] (Ca2+ flux) is recorded as “partial agonist rather than a full agonist”. Further, the “immobility time relative to vehicle control” value in test [3] was “reduces immobility time relative to vehicle control in a dose-dependent manner”. The “5-HT releaser potency compared to 5-MeO-DMT (in words)” value with rat synaptosomes (rat synaptosomes) is given as “much more potent releaser of 5-HT”. For the same molecule, in the test on rat synaptosomes (rat synaptosomes), the “% Release @ Max Dose (10 μM)” value amounted to 58.77%.
On to `CN(C)CCc1c[nH]c2ccccc12` [DMT, N,N-dimethyltryptamine, reference compound], for which the affinity at 5-HT2A receptor [2], expressed as Ki, was 416 nM. Also, the Emax amounted to 42.8% at 5-HT2B receptor, 93.4% on 5-HT2A receptor [1] (setting [4]) and 70.2% at 5-HT1A receptor. Besides, the EC50 was determined as 22.2 nM at 5-HT2A receptor [1] (HEK293 stably transfected cells, Ca2+ flux, read-out: 5-HT2A EC50) and 80.8 nM with rat synaptosomes. The “% Release @ Max Dose (10 μM)” value with rat synaptosomes (rat synaptosomes) was 80.77%.
